Reference: the supplement of paper PMC10307832

Experiments:
Assay in all cases: relative viability (nuclei count vs DMSO), 5 days (fraction); higher = more cells survive
[1] = compound: C=CCNC1=C2C[C@@H](C)C[C@H](OC)[C@H](O)[C@@H](C)/C=C(\C)[C@H](OC(N)=O)[C@@H](OC)/C=C\C=C(/C)C(=O)NC(=CC1=O)C2=O [17-AAG] + CC1(C)CCC(c2ccc(Cl)cc2)=C(CN2CCN(c3ccc(C(=O)NS(=O)(=O)c4ccc(N[C@H](CCN5CCOCC5)CSc5ccccc5)c(S(=O)(=O)C(F)(F)F)c4)cc3)CC2)C1 [Navitoclax] (partner 0.5 µM)
In short: (§1)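 A single step with final 0.05% Triton X-100, 1% formaldehyde and 1 ug/ml Hoechst fixed the cells and stained nuclei 5 days after treatment. Lung cancer cell lines in 1536-well plates had been treated by pin tool the day after seeding with one drug alone or a fixed anchor-drug dose plus five library-drug doses (not always all listed) in √10 steps, and nuclei were counted on 4× images. Relative viability is the ratio of nuclei in treated wells to nuclei in vehicle wells, taken as the median of duplicate plates.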

[2] = compound: C=CCNC1=C2C[C@@H](C)C[C@H](OC)[C@H](O)[C@@H](C)/C=C(\C)[C@H](OC(N)=O)[C@@H](OC)/C=C\C=C(/C)C(=O)NC(=CC1=O)C2=O [17-AAG] + O=C(CCCCCCC(=O)Nc1ccccc1)NO [Vorinostat] (partner 1 µM)
In short: as §1

[3] = compound: C=CCNC1=C2C[C@@H](C)C[C@H](OC)[C@H](O)[C@@H](C)/C=C(\C)[C@H](OC(N)=O)[C@@H](OC)/C=C\C=C(/C)C(=O)NC(=CC1=O)C2=O [17-AAG] + Nc1nc2[nH]cc(CCc3ccc(C(=O)N[C@@H](CCC(=O)O)C(=O)O)cc3)c2c(=O)[nH]1 [Pemetrexed] (partner 0.2 µM)
In short: as §1

[4] = compound: C=CCNC1=C2C[C@@H](C)C[C@H](OC)[C@H](O)[C@@H](C)/C=C(\C)[C@H](OC(N)=O)[C@@H](OC)/C=C\C=C(/C)C(=O)NC(=CC1=O)C2=O [17-AAG] + C[C@]1(O)C[C@@H](c2nc(-c3ccc4ccc(-c5ccccc5)nc4c3)c3c(N)nccn32)C1 [Linsitinib] (partner 1 µM)
In short: as §1

Cell Line	relative viability ([1]; first compound 0.00128 µM)	relative viability ([1]; first compound 0.004048 µM)	relative viability ([1]; first compound 0.0128 µM)	relative viability ([1]; first compound 0.04048 µM)	relative viability ([1]; first compound 0.128 µM)	relative viability ([2]; first compound 0.00128 µM)	relative viability ([2]; first compound 0.004048 µM)	relative viability ([2]; first compound 0.0128 µM)	relative viability ([2]; first compound 0.04048 µM)	relative viability ([2]; first compound 0.128 µM)	relative viability ([3]; first compound 0.00128 µM)	relative viability ([3]; first compound 0.004048 µM)	relative viability ([3]; first compound 0.0128 µM)	relative viability ([3]; first compound 0.04048 µM)	relative viability ([3]; first compound 0.128 µM)	relative viability ([4]; first compound 0.00128 µM)	relative viability ([4]; first compound 0.004048 µM)	relative viability ([4]; first compound 0.0128 µM)	relative viability ([4]; first compound 0.04048 µM)	relative viability ([4]; first compound 0.128 µM)
201T	1.21	1.21	1.17	1.16	0.973	0.932	0.945	0.858	0.55	0.252	0.317	0.342	0.361	0.23	0.213	1.06	1.05	1.01	0.985	0.863
A-427	0.95	0.946	0.891	0.991	0.986	0.875	0.849	0.867	0.373	0.298	0.974	0.961	0.97	0.321	0.265	1.12	1.1	1.1	1.1	1.15
ABC-1						1.15	1.15	1.21	1.06	0.724						0.866	0.773	0.876	0.761	0.816
BEN	0.069	0.0609	0.0634	0.052	0.0666	0.673	0.586	0.664	0.667	0.464	0.756	0.882	0.716	0.526	0.247	0.971	0.947	0.911	0.89	0.276
CAL-12T	1.25	1.17	1.21	0.799	0.296	0.796	0.729	0.671	0.65	0.282	1.17	0.951	1.15	1.04	0.207	0.764	0.815	0.73	0.425	0.276
COR-L23	1.07	1.06	0.991	0.544	0.0992	0.489	0.408	0.47	0.319	0.109	0.2	0.2	0.211	0.225	0.157	0.919	0.952	0.943	0.473	0.138
COR-L 105	0.936	0.756	0.721	0.604	0.486	0.876	0.983	0.783	0.728	0.439	1.17	1.32	1.02	0.968	0.687	0.834	0.895	1	0.644	0.666
Calu-6	0.783	0.735	0.703	0.197	0.122											0.86	0.977	0.942	0.353	0.146
ChaGo-K-1	0.949	1.11	0.897	0.441	0.273	0.749	0.776	0.691	0.49	0.214	0.25	0.276	0.264	0.253	0.204					
EKVX	0.997	0.937	0.934	0.242	0.165	0.783	0.802	0.719	0.423	0.567	0.475	0.381	0.491	0.17	0.131	1.12	1.08	0.873	0.252	0.122
EMC-BAC-2	1.23	1.07	1.18	1.11	0.443	0.609	0.506	0.387	0.199	0.357	0.504	0.536	0.548	0.448	0.383	0.875	0.772	0.837	0.803	0.265
EPLC-272H	1.11	1.21	1.02	1.06	0.225	0.398	0.426	0.109	0.115	0.0985	0.404	0.365	0.166	0.145	0.0977	1.37	1.12	1.21	0.928	0.324
H3255	0.489	0.66	0.547	0.0858	0.107	0.898	0.864	0.82	0.282	0.292	0.578	0.6	0.531	0.287	0.267	0.953	1.01	0.798	0.201	0.188
HARA	1.16	1.21	1.15	1.12	1.14	0.485	0.586	0.517	0.396	0.097	0.256	0.257	0.29	0.198	0.147	0.947	1.01	0.909	0.442	0.754
HCC-15	0.767	0.57	0.434	0.469	0.144	0.892	0.995	0.641	0.407	0.263	0.23	0.236	0.216	0.144	0.138	0.879	0.894	0.613	0.387	0.213
HCC-44	1	0.929	0.897	0.481	0.207	1.17	1.13	1.19	1.09	0.917	0.639	0.619	0.649	0.694	0.352	0.643	0.709	0.686	0.662	0.119
HCC-78	0.753		0.938	0.942	0.286	0.441	0.42	0.47	0.689	0.413	0.902	0.926	0.919	0.879	0.836	0.626		0.608	0.62	0.294
HCC-366	1.06	1.02	0.358	0.0314	0.0217	0.305	0.374	0.149	0.0397	0.0268	0.207	0.311	0.127	0.0359	0.0398	0.52	0.659	0.0425	0.0221	0.0229
HCC-827	0.973	1.03	1.01		0.944	0.963	0.864	0.833		0.863	0.283	0.264	0.257		0.218	0.902	0.958	0.946		0.855

Cell Line	relative viability ([1]; first compound 0.00128 µM)	relative viability ([1]; first compound 0.004048 µM)	relative viability ([1]; first compound 0.0128 µM)	relative viability ([1]; first compound 0.04048 µM)	relative viability ([1]; first compound 0.128 µM)	relative viability ([2]; first compound 0.00128 µM)	relative viability ([2]; first compound 0.004048 µM)	relative viability ([2]; first compound 0.0128 µM)	relative viability ([2]; first compound 0.04048 µM)	relative viability ([2]; first compound 0.128 µM)	relative viability ([3]; first compound 0.00128 µM)	relative viability ([3]; first compound 0.004048 µM)	relative viability ([3]; first compound 0.0128 µM)	relative viability ([3]; first compound 0.04048 µM)	relative viability ([3]; first compound 0.128 µM)	relative viability ([4]; first compound 0.00128 µM)	relative viability ([4]; first compound 0.004048 µM)	relative viability ([4]; first compound 0.0128 µM)	relative viability ([4]; first compound 0.04048 µM)	relative viability ([4]; first compound 0.128 µM)
HOP-62	1.16	1.01	1.05	0.843	0.151	0.687	0.563	0.452	0.141	0.083	0.409	0.314	0.271	0.127	0.109	0.783	0.917	1.08	0.819	0.455
IA-LM	0.901	0.784	0.757	0.237	0.0731	0.911	1.02	0.927	0.819	0.823						0.551	0.667	0.599	0.177	0.102
LC-2-ad	0.525	0.565	0.393	0.234	0.111	0.701	0.719	0.732	0.318	0.182	0.298	0.257	0.248	0.219	0.209	0.861	0.883	0.857	0.362	0.136
LCLC-97TM1	0.47	0.573	0.518	0.378	0.355	0.848	0.668	0.634	0.44	0.0747	0.188	0.204	0.186	0.206	0.116	0.192	0.198	0.211	0.269	0.182
LCLC-103H						0.883	0.844	0.731	0.832	0.818	0.452	0.48	0.461	0.557	0.61	1.15	1.12	1.13	0.965	0.992
NCI-H358						0.703	0.439	0.113	0.0837	0.0628	0.156	0.19	0.126	0.0833	0.0832	0.817	0.892	0.148	0.161	0.131
NCI-H522						0.982	0.944	0.518	0.423	0.382	0.974	1.01	0.673	0.764	0.372					
NCI-H650						0.443	0.497	0.477	0.32	0.193	1.03	0.895	0.91	0.657	0.236	0.865	0.908	0.788	0.314	0.177
NCI-H661						0.785	0.791	0.707	0.441	0.31	0.883	0.926	0.861	0.367	0.31	0.558	0.569	0.516	0.45	0.259
NCI-H727	0.426	0.455	0.214	0.206	0.226	1.36	1.05	1.23	1.32	0.511						0.312	0.252	0.176	0.179	0.22
NCI-H1563											0.773	0.898	0.468	0.452	0.414	1.17	0.952	0.668	0.623	0.622
NCI-H1648							0.433	0.362	0.538	0.243		0.904	0.649	0.29	0.288					
NCI-H1650	1.19	0.782	0.407	0.181	0.171	0.371	0.376	0.232	0.152	0.138	0.336	0.383	0.351	0.168	0.15					
NCI-H1703	0.961	0.22	0.16	0.162	0.125											0.3	0.687	0.115	0.148	0.0982
NCI-H1792	0.592	0.675	0.523	0.477	0.115						0.782	0.378	0.113	0.0425	0.0604	0.481	0.619	0.449	0.391	0.372
NCI-H2170	0.649	0.578	0.548	0.251	0.167	0.837	0.827	0.336	0.169	0.143	0.256	0.27	0.262	0.152	0.139					
NCI-H2342						0.651	0.86	0.715	0.668	0.409	0.803	0.854	0.782	0.589	0.39					
SW 900						0.51	0.547	0.23	0.138	0.131	0.455	0.437	0.242	0.139	0.168					
